Test results taken from PubChem BioAssay (NCI).
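Protocol summary: plate cells (96-well), add compound at 5 concentrations, incubate 48 h, interpolate endpoints linearly. GI50 is the concentration that inhibits growth by half. Definition used: TGI = concentration required for complete inhibition of growth.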

How the values were obtained:
Experiment in all cases: NCI-60 cell line screen, 48 h
MDA-MB-435 = test system: MDA-MB-435
BT-549 breast = test system: BT-549 breast
MDA-N = test system: MDA-N
DMS 114 small cell lung = test system: DMS 114 small cell lung
HOP-18 NSCLC = test system: HOP-18 NSCLC
LXFL 529 NSCLC = test system: LXFL 529 NSCLC
DMS 273 small cell lung = test system: DMS 273 small cell lung
XF 498 CNS = test system: XF 498 CNS
RXF-631 renal = test system: RXF-631 renal

| Compound | TGI (MDA-MB-435) | TGI (BT-549 breast) | TGI (LXFL 529 NSCLC) | GI50 (MDA-MB-435) | GI50 (BT-549 breast) | other results |
| --- | --- | --- | --- | --- | --- | --- |
| [N-]=[N+]=NC1(N=[N+]=[N-])C(=O)NN=C(c2ccccc2)C1=O (stereo not drawn) | 42.6 µM | > 100 µM | – | – | – | TGI (MDA-N): 61.3 µM |
| COc1ccc2[nH]c3c4c(c5cc(C(C)(C)C)ccc5c3c2c1)C(=O)N(c1ccccc1)C4=O | – | – | > 100 µM | – | – | TGI (DMS 114 small cell lung): > 100 µM; TGI (HOP-18 NSCLC): > 100 µM |
| CN1CCN(C(=O)c2ccc(NC(=O)Nc3ccc(N(C)c4ccnc(Nc5ccc(CS(C)(=O)=O)cc5)n4)cc3)cc2)CC1 | > 25 µM | > 25 µM | – | > 25 µM | 9.05 µM | – |
| c1cncc(C2c3[nH]c4ccccc4c3CCN2CCCN2CCCCC2)c1 (stereo not drawn) | – | – | > 100 µM | – | – | TGI (DMS 114 small cell lung): > 100 µM; TGI (DMS 273 small cell lung): > 100 µM; TGI (XF 498 CNS): > 100 µM |
| CC(C)C1C(=O)N2CCCC2C2(O)OC(NC(=O)C3C=C4c5cccc6[nH]cc(c56)CC4N(C)C3)(C(C)C)C(=O)N12 (stereo not drawn) | > 100 µM | 88.6 µM | – | – | – | TGI (MDA-N): 67.5 µM |
| CCCCCCN(CCCCCC)C(=N)c1ccnc2ccccc12 | 14.7 µM | 27.3 µM | – | 3.21 µM | 13.9 µM | – |
| CC1=CC(=O)C(C)(C2=NC(C)(C)CO2)c2ccccc21 (stereo not drawn) | – | – | > 100 µM | – | – | TGI (DMS 114 small cell lung): > 100 µM; TGI (HOP-18 NSCLC): > 100 µM; TGI (RXF-631 renal): > 100 µM |
| C[C@H]1CCC/C=C/[C@@H]2C[C@H](O)C[C@H]2[C@H](O)[C@H](S(=O)c2ccc(O)cc2)CC(=O)O1 (stereo partly drawn) | – | > 100 µM | – | 0.0417 µM | 0.0472 µM | GI50 (MDA-N): 0.0409 µM |
| O=c1oc2ccc(Cl)cc2c(=O)n1-c1ccc(Cl)cc1F | 4.86 µM | 2.44 µM | – | 0.572 µM | 0.483 µM | – |
| CC(=O)CC(=O)N(CCN(C(=O)CC(C)=O)c1ccccc1)c1ccccc1 | – | – | > 100 µM | – | – | TGI (DMS 114 small cell lung): > 100 µM; TGI (HOP-18 NSCLC): > 100 µM; TGI (XF 498 CNS): > 100 µM |
| CCOC(=O)[C@H](CSSc1ncnc2cc[nH]c12)NC(=O)[C@@H](C)c1ccc2cc(OC)ccc2c1 | > 100 µM | > 100 µM | – | 0.355 µM | 0.916 µM | – |
| CCc1ccc(C2=C/C(=C/c3ccc(Cl)cc3)C(=O)N2CCc2ccc(S(N)(=O)=O)cc2)cc1 | 4.81 µM | 3.42 µM | – | 2.15 µM | 1.79 µM | – |
| C/C(=C\c1ccn(-c2ccc(N)c(C(F)(F)F)c2)n1)[C@@H]1C[C@@H]2O[C@]2(C)CCC[C@H](C)[C@H](O)[C@@H](C)C(=O)C(C)(C)[C@@H](O)CC(=O)O1 | – | 31.5 µM | – | – | 0.0221 µM | – |
| CCCCCCCCCCCCCOC(=O)c1c(C)[nH]c(/C=C2\N=C(c3ccc[nH]3)C=C2OC)c1C | > 100 µM | 36.7 µM | – | 0.0411 µM | 0.237 µM | – |
| CCC[CH2][Sn]1([CH2]CCC)[O]C(c2ccccn2)S(=O)(=O)[O]1 (stereo not drawn) | – | – | 2.92 µM | – | – | GI50 (RXF-631 renal): 1.3 µM; TGI (RXF-631 renal): 2.64 µM; GI50 (DMS 273 small cell lung): 3.29 µM; TGI (DMS 273 small cell lung): 15.5 µM; GI50 (XF 498 CNS): 2.08 µM; TGI (XF 498 CNS): 3.55 µM; GI50 (LXFL 529 NSCLC): 1.54 µM |
| COc1ccc(C(=O)/C=C/c2cc3ccccc3[nH]c2=O)cc1 | > 55.8 µM | > 42.9 µM | – | 21.2 µM | 20.2 µM | – |
| O=C(O)C(=O)Cc1ccc2c(c1)OCO2 | > 100 µM | > 100 µM | – | – | – | TGI (MDA-N): > 100 µM |
| CC1(C)CCC(=O)c2c(O)ccc(O)c21 | – | – | > 100 µM | – | – | TGI (DMS 273 small cell lung): > 100 µM |

| Compound | TGI (MDA-MB-435) | TGI (BT-549 breast) | TGI (LXFL 529 NSCLC) | GI50 (MDA-MB-435) | GI50 (BT-549 breast) | other results |
| --- | --- | --- | --- | --- | --- | --- |
| O=S(=O)(NCCNc1cc(-c2cn(-c3ccccc3)nc2-c2cccc(O)c2)ccn1)c1ccc(C(F)(F)F)cc1 | 7.63 µM | 7.07 µM | – | 2.4 µM | 2.02 µM | – |
| CS(=O)(=O)c1ccc(N/N=C/c2c(-c3ccc(S(C)(=O)=O)cc3)[nH]c3ccc(F)cc23)cc1 | > 50 µM | > 50 µM | – | 3.12 µM | 1.44 µM | – |
| CCN(Cc1ccc(F)cc1)c1ccc(CO)c(Cl)c1 | 73.2 µM | 29.7 µM | – | 19.9 µM | 9.27 µM | – |
| O=c1[nH]cnc2c(C3OC(CO)C(O)C3O)[nH]nc12 (stereo not drawn) | > 100 µM | > 100 µM | – | – | – | TGI (MDA-N): > 100 µM |
| C#C[C@@]1(O)[C@@H](CO)O[C@@H](n2cc(Cl)c3c(N)ncnc32)[C@@H]1O | 2.4 µM | – | – | 0.166 µM | – | – |
| O=C(O)C1C2C=CC(O2)C1C(=O)Nc1ccccc1 (stereo not drawn) | > 100 µM | > 100 µM | – | – | – | TGI (MDA-N): > 100 µM |
| CSc1nc(NC2OCC(OC(C)=O)C(OC(C)=O)C2OC(C)=O)c(N=CC=Nc2c(NC3OCC(OC(C)=O)C(OC(C)=O)C3OC(C)=O)nc(SC)n(C)c2=O)c(=O)n1C (stereo not drawn) | – | – | > 100 µM | – | – | TGI (DMS 114 small cell lung): > 100 µM; TGI (HOP-18 NSCLC): > 100 µM; TGI (DMS 273 small cell lung): > 100 µM |
| CCC1CCc2nc3sc(C(=O)Nc4ccccc4F)c(N)c3cc2C1 (stereo not drawn) | 0.562 µM | > 100 µM | – | 0.133 µM | > 100 µM | – |
| CC(=O)[CH-]C(=O)c1ccccc1.CC(=O)[CH-]C(=O)c1ccccc1.O=C([O-])C[O-].O=C([O-])C[O-].[Ti+4] | – | – | > 100 µM | – | – | GI50 (LXFL 529 NSCLC): 33.5 µM |
| COc1cccc(-c2nn(-c3ccccc3)cc2-c2ccnc(NCCNS(=O)(=O)c3ccc(C(F)(F)F)cc3)c2)c1 | 17.5 µM | 4.56 µM | – | 3.23 µM | 1.95 µM | – |
| Cc1cc(Cl)ccc1Nc1sc(C(=O)c2cc3cc(Cl)ccc3o2)c(N)c1C#N | > 100 µM | > 100 µM | – | – | – | TGI (MDA-N): > 100 µM |
| CCCCCCCCN(CCCCCCCC)C(=N)c1ccnc2ccccc12 | 1.07 µM | – | – | 0.302 µM | – | – |
| Nn1c(CCCl)nc2c(Br)cc(Br)cc2c1=O | – | – | 69.3 µM | – | – | TGI (DMS 114 small cell lung): 50.5 µM; TGI (HOP-18 NSCLC): > 100 µM; TGI (DMS 273 small cell lung): > 100 µM; TGI (XF 498 CNS): 56.1 µM |
| Cc1cc(NC(=O)c2ccc(NS(=O)(=O)CCO)cc2N2CCC3(CC2)CC3)nc(N2CCC(F)(F)CC2)n1 | 18.5 µM | 17.9 µM | – | 0.903 µM | 0.486 µM | – |
| CCOC(=O)/C(=C/c1ccc(OC)c(OC)c1)C(=O)c1ccccc1 | – | – | 25.3 µM | – | – | TGI (DMS 114 small cell lung): 32 µM; TGI (XF 498 CNS): 29.9 µM |
| COc1ccc(NC(=O)C(=O)C(CC2C(=O)NC(=S)NC2=O)C(=O)c2ccc3ccccc3c2)c([N+](=O)[O-])c1 (stereo not drawn) | > 100 µM | > 100 µM | – | – | – | TGI (MDA-N): > 100 µM |
| Cc1cc(N(CCOS(C)(=O)=O)CCOS(C)(=O)=O)ccc1C=Nc1ccc(-c2csc(-c3ccccc3)n2)c(Cl)c1 | 38 µM | 73.6 µM | – | – | – | TGI (MDA-N): 23.1 µM |
| Cc1cc(C)c(C(=O)O)c(N)c1O | – | – | > 100 µM | – | – | TGI (DMS 114 small cell lung): > 100 µM; TGI (DMS 273 small cell lung): > 100 µM |
